# According to patent publication US20240148821A1, “PHARMACEUTICAL USE OF CYCLIC PEPTIDE COMPOUND” (CHUGAI SEIYAKU KABUSHIKI KAISHA, priority 2021, published 2024):
# Numbered stars: 1 amine (or outer) side, 2 acyl side, 3 side chain; on linkers, the order of the positions; unused ones are H or OH. Bridge positions count the residues as written; N and C are the ends. Square brackets hold non-standard residues; d marks the D form. Peptide text beside a SMILES is read from it. * marks the point of attachment. hPhe(3,5-F2-4-CF3) = N[C@@H](CCc1cc(F)c(C(F)(F)F)c(F)c1)C(=O)O; hPhe(3-Cl-4-CF3) = N[C@@H](CCc1ccc(C(F)(F)F)c(Cl)c1)C(=O)O; NEtPhe(4-CF3) = CCN[C@@H](Cc1ccc(C(F)(F)F)cc1)C(=O)O; NMePhe(4-CF3) = CN[C@@H](Cc1ccc(C(F)(F)F)cc1)C(=O)O; Pro(trans-4-Ph) = O=C(O)[C@@H]1C[C@@H](c2ccccc2)CN1; hPhe(4-CF3) = N[C@@H](CCc1ccc(C(F)(F)F)cc1)C(=O)O; NMePhe(4-Cl) = CN[C@@H](Cc1ccc(Cl)cc1)C(=O)O; NMeNle(6-CHF2) = CN[C@@H](CCCCC(F)F)C(=O)O; NMedβ3hAla = C[C@H](CC(=O)[*:2])N(C)[*:1]; NMeAla(cPent) = CN[C@@H](CC1CCCC1)C(=O)O; NMeGly(cPent) = CN[C@H](C(=O)O)C1CCCC1; Pro(4,4-F2) = O=C(O)[C@@H]1CC(F)(F)CN1; Ala(cPent) = N[C@@H](CC1CCCC1)C(=O)O; NMeCha = CN[C@@H](CC1CCCCC1)C(=O)O; NMeGly(cPr) = CN[C@H](C(=O)O)C1CC1; Hyp = O=C(O)[C@@H]1C[C@@H](O)CN1; NMeChg = CN[C@H](C(=O)O)C1CCCCC1; NMeI = CC[C@H](C)[C@H](NC)C(=O)O; d(β3hL) = CC(C)C[C@@H](N)CC(=O)O; NMeD = CN[C@@H](CC(=O)O)C(=O)O; NMeL = CN[C@@H](CC(C)C)C(=O)O; NMeV = CN[C@H](C(=O)O)C(C)C; NMeA = CN[C@@H](C)C(=O)O; Piperidide = C1CCN(*)CC1; Ac5c = NC1(C(=O)O)CCCC1; Aze = O=C(O)[C@@H]1CCN1; Ac4c = NC1(C(=O)O)CCC1; Sar = CNCC(=O)O
# Target: protein-protein interaction between Kras and SOS1 (biotin-tagged human Kras loaded with GDP, His-tagged human SOS1) (Homo sapiens (Human), UniProt P01116, G12D)
# Test: Protein-protein interaction inhibition between Kras and SOS1 (KrasG12D-SOS PPI) using AlphaScreen;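 note: kras produced in E. coli, Ni-coupled donor beads and streptavidin acceptor beads, excitation 680 nm with emission detected at 520–620 nm via singlet oxygen transfer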
# Format: biochemical
# Conditions: AlphaScreen; biotin-tagged human Kras loaded with GDP, His-tagged human SOS1; read-out: KRAS G12D-SOS PPI IC50
row,Structure (SMILES),IC50 [nM]
1,CC[C@H](C)[C@@H]1NC(=O)[C@H](CC(C)C)N(C)C(=O)C[C@@H](C)N(C)C(=O)[C@H]([C@@H](C)CC)N(C)C(=O)C2(CCCC2)NC(=O)[C@@H]2CCCN2C(=O)[C@H](CCc2ccc(C(F)(F)F)c(Cl)c2)NC(=O)CN(C)C(=O)[C@H](C2CCCC2)N(C)C(=O)[C@@H]2CCN2C(=O)[C@H](C)N(C)C1=O [Compound 79] (cyclo([Ac5c][NMeI][NMedβ3hAla][NMeL]I[NMeA][Aze][NMeGly(cPent)][Sar][hPhe(3-Cl-4-CF3)]P)),9.3
2,CC(C)C[C@H]1C(=O)N[C@@H](CC2CCCC2)C(=O)N(C)[C@@H](C)C(=O)N2CC[C@H]2C(=O)N(C)[C@@H](CC2CCCCC2)C(=O)N(C)CC(=O)N[C@@H](CCc2ccc(C(F)(F)F)c(Cl)c2)C(=O)N2CCC[C@H]2C(=O)NC2(CCCC2)C(=O)N(C)[C@@H](C(C)C)C(=O)N(C)[C@H](C(=O)N2CCCCC2)CC(=O)N1C [Compound 84] ([NMeL][Ala(cPent)][NMeA][Aze][NMeCha][Sar][hPhe(3-Cl-4-CF3)]P[Ac5c][NMeV][NMeD]-Piperidide; lactam N-11),73
3,"CC[C@H](C)[C@@H]1NC(=O)[C@H](CC(C)C)N(C)C(=O)C[C@@H](C)N(C)C(=O)[C@H]([C@@H](C)CC)N(C)C(=O)C2(CCC2)NC(=O)[C@@H]2CC(F)(F)CN2C(=O)[C@H](CCc2cc(F)c(C(F)(F)F)c(F)c2)NC(=O)CN(C)C(=O)[C@H](Cc2ccc(C(F)(F)F)cc2)N(CC)C(=O)[C@@H]2CCN2C(=O)[C@H](C)N(C)C1=O [Compound 85] (cyclo([Ac4c][NMeI][NMedβ3hAla][NMeL]I[NMeA][Aze][NEtPhe(4-CF3)][Sar][hPhe(3,5-F2-4-CF3)][Pro(4,4-F2)]))",15
4,CC[C@H](C)[C@@H]1NC(=O)[C@H](CC(C)C)N(C)C(=O)C[C@@H](C)N(C)C(=O)[C@H](C(C)C)N(C)C(=O)C2(CCCC2)NC(=O)[C@@H]2CCCN2C(=O)[C@H](CCc2ccc(C(F)(F)F)c(Cl)c2)NC(=O)CN(C)C(=O)[C@H](CC2CCCC2)N(C)C(=O)CN(C)C(=O)CN(C)C1=O [Compound 88] (cyclo([Ac5c][NMeV][NMedβ3hAla][NMeL]I[Sar][Sar][NMeAla(cPent)][Sar][hPhe(3-Cl-4-CF3)]P)),18
5,CC[C@H](C)[C@@H]1NC(=O)[C@H](CC(C)C)N(C)C(=O)C[C@@H](C(=O)N2CCCCC2)N(C)C(=O)[C@H](C2CCCCC2)N(C)C(=O)C2(CCCC2)NC(=O)[C@@H]2C[C@@H](c3ccccc3)CN2C(=O)[C@H](CCc2ccc(C(F)(F)F)c(Cl)c2)NC(=O)CN(C)C(=O)[C@H](CC2CCCCC2)N(C)C(=O)CN(C)C(=O)CN(C)C1=O [Compound 90] ([NMeL]I[Sar][Sar][NMeCha][Sar][hPhe(3-Cl-4-CF3)][Pro(trans-4-Ph)][Ac5c][NMeChg][NMeD]-Piperidide; lactam N-11),5
6,CC[C@H](C)[C@@H]1NC(=O)[C@H](CCCCC(F)F)N(C)C(=O)C[C@@H](C(=O)N2CCCCC2)N(C)C(=O)[C@H](C(C)C)N(C)C(=O)C2(CCCC2)NC(=O)[C@@H]2CCCN2C(=O)[C@H](CCc2ccc(C(F)(F)F)c(Cl)c2)NC(=O)CN(C)C(=O)[C@H](CC2CCCCC2)N(C)C(=O)[C@@H]2CCN2C(=O)[C@H](C)N(C)C1=O [Compound 94] ([NMeNle(6-CHF2)]I[NMeA][Aze][NMeCha][Sar][hPhe(3-Cl-4-CF3)]P[Ac5c][NMeV][NMeD]-Piperidide; lactam N-11),3.3
7,CCO[C@@H]1C[C@H]2C(=O)NC3(CCC3)C(=O)N(C)[C@@H]([C@@H](C)CC)C(=O)N(C)[C@H](C)CC(=O)N(C)[C@@H](CC(C)C)C(=O)N[C@@H]([C@@H](C)CC)C(=O)N(C)[C@@H](C)C(=O)N3CC[C@H]3C(=O)N(C)[C@@H](Cc3ccc(C(F)(F)F)cc3)C(=O)N(C)CC(=O)N[C@@H](CCc3ccc(C(F)(F)F)c(Cl)c3)C(=O)N2C1 [Compound 99] (cyclo([Ac4c][NMeI][NMedβ3hAla][NMeL]I[NMeA][Aze][NMePhe(4-CF3)][Sar][hPhe(3-Cl-4-CF3)][Hyp](Et))),2.9
8,CC[C@H](C)[C@@H]1NC(=O)[C@H](C2CC2)N(C)C(=O)C[C@@H](C(=O)N2CCCCC2)N(C)C(=O)[C@H](C(C)C)N(C)C(=O)C2(CCCC2)NC(=O)[C@@H]2CCCN2C(=O)[C@H](CCc2ccc(C(F)(F)F)c(Cl)c2)NC(=O)CN(C)C(=O)[C@H](CC2CCCCC2)N(C)C(=O)[C@@H]2CCN2C(=O)[C@H](C)N(C)C1=O [Compound 100] ([NMeGly(cPr)]I[NMeA][Aze][NMeCha][Sar][hPhe(3-Cl-4-CF3)]P[Ac5c][NMeV][NMeD]-Piperidide; lactam N-11),7.4
9,CC[C@H](C)[C@@H]1NC(=O)[C@H](C(C)C)N(C)C(=O)C[C@@H](CC(C)C)NC(=O)[C@H](CC(C)C)N(C)C(=O)C2(CCCC2)NC(=O)[C@H](CC(C)C)N(C)C(=O)[C@H](CCc2ccc(C(F)(F)F)cc2)NC(=O)CN(C)C(=O)[C@H](Cc2ccc(Cl)cc2)N(C)C(=O)CN(C)C(=O)CN(C)C1=O [Compound 113] (cyclo([Ac5c][NMeL][d(β3hL)][NMeV]I[Sar][Sar][NMePhe(4-Cl)][Sar][hPhe(4-CF3)][NMeL])),280
